Experimental data published in patent US20080206738A1, “Compositions and methods for modulating S-nitrosoglutathione reductase” (Duke University, priority 2003, published 2008).
One block for each compound: values may come before it.

Experiments:
GRK2 [1] = target: T1, GRK2 (Homo sapiens, UniProt P25098); experiment: GRK2-mediated phosphorylation of purified β2-AR in a reconstituted system; format: biochemical; conditions: cysNO 500, 50, 5 μM; isoproterenol (10 μM) stimulated; β2-AR reconstituted in synthetic vesicles
T1 sequence (P25098 1-689): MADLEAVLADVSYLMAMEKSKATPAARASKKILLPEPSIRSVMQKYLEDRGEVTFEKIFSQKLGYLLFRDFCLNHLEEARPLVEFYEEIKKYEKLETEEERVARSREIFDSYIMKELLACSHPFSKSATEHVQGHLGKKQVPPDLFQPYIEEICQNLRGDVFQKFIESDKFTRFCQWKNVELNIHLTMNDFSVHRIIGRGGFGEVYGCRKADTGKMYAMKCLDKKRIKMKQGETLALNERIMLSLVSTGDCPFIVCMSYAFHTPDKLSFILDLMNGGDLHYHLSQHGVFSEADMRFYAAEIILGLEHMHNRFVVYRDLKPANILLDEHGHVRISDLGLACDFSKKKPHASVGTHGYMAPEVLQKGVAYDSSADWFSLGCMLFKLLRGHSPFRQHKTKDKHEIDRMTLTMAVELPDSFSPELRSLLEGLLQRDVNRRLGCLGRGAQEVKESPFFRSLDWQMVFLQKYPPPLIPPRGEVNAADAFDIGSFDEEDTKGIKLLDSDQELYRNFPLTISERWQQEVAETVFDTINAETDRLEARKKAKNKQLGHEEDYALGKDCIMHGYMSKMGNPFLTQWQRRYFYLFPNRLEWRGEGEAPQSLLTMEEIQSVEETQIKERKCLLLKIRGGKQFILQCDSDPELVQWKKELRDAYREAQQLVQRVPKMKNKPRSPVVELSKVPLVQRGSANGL
Procedure: (§1) FIGS. 11A-11B. Results from GRK studies. FIG. 11A. Representative gel from experiments examining the effect of cysNO (500, 50, and 5 μM) on isoproterenol (10 μM) stimulated GRK2 mediated receptor phosphorylation using purified β2-AR reconstituted in synthetic vesicles and purified GRK2. FIG. 11B: Representative gel from experiments examining the effect of cysNO (5, 50, and 500 μM) light stimulated GRK2 mediated phosphorylation of rhodopsin using purified bovine rod outer segments and purified GRK2.
(§2) Previous data provided strong evidence supporting the hypothesis that NO prevented GRK (G protein-coupled receptor kinase)-mediated phosphorylation of the β2-AR (adrenergic receptor). Further experiments were required to determine whether NO was acting directly on the receptor or the GRKs. To elucidate the site of NO action, its effect was tested on GRK2-mediated phosphorylation of the β2-AR and on a soluble peptide substrate using purified proteins in a reconstituted system.

GRK2 [2] = target: T1, GRK2; experiment: GRK2-mediated phosphorylation of rhodopsin from purified bovine rod outer segments; format: biochemical; conditions: cysNO 5, 50, 500 μM, light stimulated
Procedure: as §1, §2

GRK2 [3] = target: T1, GRK2; experiment: Purified GRK2-mediated in vitro phosphorylation of a soluble peptide substrate (RRREEEEESAAA); format: biochemical; conditions: 500, 50, and 5 μM; n=2; P<0.05
Procedure: FIGS. 12A-12B: Effect of cysNO (A: 500, 50, and 5 μM) and GSNO (B: 500, 50, and 5 μM) on purified GRK2 mediated in vitro phosphorylation of a soluble peptide substrate (RRREEEEESAAA; SEQ ID NO:30) (n=2; *P<0.05).
To confirm this, experiments were performed to examine the capacity of SNOs to inhibit purified GRK2-mediated phosphorylation of a synthetic peptide substrate (RRREEEEESAAA; SEQ ID NO:30).

cardiac β-ARs = experiment: Chronic isoproterenol-induced cardiac hypertrophy and β-AR down-regulation in mice (mini-osmotic pump); format: in vivo, mouse
Procedure: FIGS. 13A-13C: Results of Cardiac Studies. FIG. 13A: Heart weight to body weight ratio (hw:bw, mg:g) (n=10); FIG. 13B: Cardiac β-AR density (BMax, fmol/mg protein (n=5); FIG. 13C: Cardiac PARK protein expression levels (n=4), in mice following mini-osmotic pump implantation and treatment for 7 days with either PBS, isoproterenol (ISO) (30 mg/kg/day), GSNO (10 mg/kg/day) or a combination of ISO and GSNO. All data expressed as mean (+/−SEM) (*P<0.05 versus PBS treated mice, +P<0.05 versus ISO treated mice, unpaired t test).
One well established model of experimental cardiac hypertrophy in the mouse involves the chronic administration of the β-AR agonist, isoproterenol. This treatment leads to a functional uncoupling and down-regulation of cardiac β-ARs and the development of a significant increase in wall mass. Experiments were performed to study the effects of GSNO on the development of cardiac hypertrophy and its ability to alter the pattern of β-AR down-regulation associated with chronic isoproterenol stimulation.
Whole cell and membrane receptor/ligand binding was performed to assess functional affinity of receptor for ligand and overall receptor density as described previously. In particular, whole cell and membrane binding was assessed for cells treated with multiple concentrations of NO/SNO in the presence and absence of desensitizing conditions (agonist pre-stimulation).
In contrast, the combined infusion of GSNO with ISO maintained P receptor density (FIG. 13B) because it inhibits PARK (GRK2) (FIGS. 12A-12B). Therefore, inhibitors of GSNOR alone or in combination with β-agonists could be used to improve heart failure, or other vascular disorders such as hypertension and asthma.

[4] = tested on: animal models of endotoxic shock; conditions: literature (Feihl et al., 2001; Ou et al., 1997); cited from earlier work
[5] = tested on: LPS-challenged GSNOR−/− mice; experiment: iNOS inhibition with 1400 W in LPS-challenged GSNOR−/− mice (endotoxic shock); format: in vivo, mouse
Excerpt: Blood was obtained by cardiac puncture after animals were euthanized by CO2 inhalation. The following serum chemistries were quantified by Antech Diagnostics (Farmingdale, N.Y.): alanine aminotransferase (ALT), aspartate aminotransferase (AST), creatine phosphokinase (CPK), urea nitrogen (BUN), creatinine, amylase, lipase, lactate dehydrogenase, alkaline phosphatase, total protein, globulin, albumin, calcium, magnesium, sodium, potassium, chloride, phosphorus, glucose, bilirubin, cholesterol, triglycerides, and osmolality.
Serum nitrate and nitrite were measured by capillary electrophoresis (CE) (Zunic et al., 1999) with a P/ACE MDQ system (Beckman) and by chemiluminescence (Sievers NO Analyzer). For CE, sera were diluted (1:10) with water and filtered through a 5 kDa cut-off membrane. Electrophoresis of the filtered samples and of nitrate and nitrite standards was carried out in a neutral capillary with Tris buffer (100 mM, pH 8.0), and monitored by absorbance at 214 nm. Nitrite concentrations are higher when measured by CE than by chemiluminescence (Zunic et al., 1999), but no relative differences between CE and chemiluminescence were observed.
LPS (E. coli, serotype 026:B6, Sigma) at a dosage of 150,000 endotoxin units/g (EU/g) was injected intraperitoneally into C57BL/6 and GSNOR^−/− mice. The mice were matched for age (11-12 weeks old), gender, and weight. LPS used for the males was lot number 050K4117 (15 million EU/mg) and LPS used for the females was lot number 101K4080 (3 million EU/mg). Studies were done in 45 additional male mice (22 wild-type and 23 GSNOR^−/−) administered lot number 101K4080. […] Phosphate-buffered saline (PBS, 20 μl/g) was injected in controls. In additional sets of experiments, LPS-challenged GSNOR^−/− mice were injected subcutaneously with the iNOS inhibitor 1400 W (1 μg/g, Cayman) or PBS (10 μl/g). Injections were performed at 6, 24 and 30 hours after LPS, or at 24, 42 and 48 hours after LPS.
Liver homogenates were prepared in lysis buffer (20 mM Tris-HCl, pH 8.0, 0.5 mM EDTA, 100 μM diethylenetriamine pentaacetic acid, 0.1% NP-40 and 1 mM phenylmethylsulfonyl fluoride). SNO levels in the total lysate and in a fraction filtered through a 5 kDa cut-off ultrafiltration membrane (low-mass SNO) were measured by photolysis-chemiluminescence (Liu et al., 2000b) and normalized for protein content.
Survival data on day 6 after LPS treatment were analyzed by both the χ^2 test and the Fisher exact test of contingency tables, with similar results. Blood pressure, SNO levels and serum chemistries were analyzed with the Student's t-test or with the nonparametric Mann-Whitney test.
Additional experiments were performed to establish the contribution of nitrosative stress to the pathogenesis of endotoxic shock. LPS-challenged GSNOR^−/− mice were treated with 1400 W, a selective iNOS inhibitor. Administration of 1400 W, initiated 6 h following LPS injection, reduced serum nitrate (i.e., NOS activity) by about 50% (FIG. 7A, P=0.015) and liver injury by about 90% (FIG. 7C, P=0.020). This improvement coincided with a reduction of liver SNO by about 90% (FIG. 7B). […] By comparison, PBS (volume control) had little effect (FIG. 7D vs. FIG. 3D). When administration of 1400 W was delayed for 24 h following LPS injection, this allowed SNOs to accumulate to hazardous levels, and the protection conferred by NOS inhibition was lost (3 out of 5 female GSNOR^−/− mice died).

[6] = ISO infused for 7 days using a pump (30 mg/kg/day)
[7] = administration of 1400 W delayed for 24 h following LPS injection
[8] = GSNO 10 mg/kg/day via osmotic mini-pump with ISO 30 mg/kg/day

- GRK2-mediated phosphorylation of the purified β2-AR (GRK2 [1]): significantly decreased
- GRK2-mediated phosphorylation of rhodopsin (GRK2 [2]): significantly decreased
- GRK2 mediated phosphorylation of the synthetic peptide substrate (GRK2 [3]): significantly inhibited
SMILES: N[C@@H](CSN=O)C(=O)O [cysNO]

SMILES: CC(C)NCC(O)c1ccc(O)c(O)c1 (stereo not shown) [isoproterenol]
- cardiac weight (cardiac β-ARs; [6]): increases
- β adrenergic receptor levels (cardiac β-ARs; [6]): decreased
- βARK (GRK2) expression (cardiac β-ARs; [6]): increased

SMILES: CC(=N)NCCCC[C@H](N)C(=O)O [N-(1-iminoethyl)-L-lysine, N6-(1-Iminoethyl)-L-lysine]
- effect on injury in animal models of endotoxic shock [4]: either have little effect or worsen injury

SMILES: CC(=N)NCc1cccc(CN)c1 [1400 W, N-[3-(aminomethyl)benzyl]acetamidine]
- survival rate of LPS-challenged GSNOR−/− mice ([5]; 1400 W initiated 6 h following LPS injection, P=0.03): significantly improved
- reduction of serum nitrate (i.e., NOS activity) ([5]; GSNOR−/− mice, 1400 W 1 μg/g s.c. initiated 6 h following LPS injection, P=0.015): about 50%
- reduction of liver SNO ([5]; GSNOR−/− mice, 1400 W initiated 6 h following LPS injection): about 90%
- reduction of liver injury (serum ALT) ([5]; GSNOR−/− mice, 1400 W initiated 6 h following LPS injection, P=0.020): about 90%
- tissue injury in kidney, pancreas, and muscle (serum markers) ([5]; GSNOR−/− mice, 48 h after LPS treatment, 1400 W initiated 6 h following LPS): reduced
- female GSNOR−/− mice that died [5, 7]: 3 out of 5
- protection conferred by NOS inhibition [5, 7]: lost
- effect on injury in animal models of endotoxic shock [4]: either have little effect or worsen injury

- GRK2 mediated phosphorylation of the synthetic peptide substrate (GRK2 [3]): significantly inhibited
SMILES: N[C@@H](CCC(=O)N[C@@H](CSN=O)C(=O)NCC(=O)O)C(=O)O [GSNO, S-nitrosoglutathione]
- isoproterenol-stimulated changes in heart weight to body weight ratio (cardiac β-ARs; [8]): no effect
- β-AR down-regulation (cardiac β-ARs; [8]): significantly decreased
- β receptor density (cardiac β-ARs; combined infusion of GSNO with ISO): maintained
